Experimental data taken from article PMC11378297, “Discovery and Profiling of New Multimodal Phenylglycinamide Derivatives as Potent Antiseizure and Antinociceptive Drug Candidates” (ACS Chemical Neuroscience, 2024).
Read-outs that look alike come from different tables or passages of the source.

Columns and labels:
[1] = target: T1, Voltage-Gated Sodium channel hNav1.2 (Homo sapiens, UniProt Q99250); test: human sodium ion channel cell based automated patch clamp assay, hNav1.2
T1 construct: Eurofins Discovery (St. Charles, MO, USA)
Description: (§1) Therefore, as a part of the more detailed functional characterization using automated patch clamp method, we tested the influence of (R)-32 on sodium currents mediated by several Navx channels comprising 5 different human subunits, namely, Nav1.1, Nav1.2, Nav1.3, Nav1.6, and Nav1.7, which are involved in both seizure and/or pain modulation.[74],[80],[81] As summarized in Tables S4–S8, (R)-32 starting from 10 μM effectively and in concentration-dependent manner decreased sodium currents mediated by all aforementioned sodium channel subunits. Furthermore, (R)-32 appeared to bind exclusively to sodium channels that are in an inactivated state (see pulse 2 in Tables S4–S8), but not to the channels that are in an open state (pulse 1) (for additional details, see Supporting Information).
(§2) Human sodium ion channels cell based automated patch clamp assay
(§3) Human sodium ion channels cell based automated patch clamp assays: sodium channels exist in, a) a resting or closed state at -120 mV, b) a transient open state that inactivates to c) inactivated state at -10 mV. Sodium current inhibition within 1-2 ms of channel opening at 0 mV is open channel inhibition (pulse 1). In order to completely inactivate the sodium channels and facilitate inactivated state-dependent binding of the drug, the channels were kept at […] ( -10 mV) longer (pulsed for 500 ms) and then stepped back to -120 mV for 10 ms to recover from inactivation into resting or closed state (but the channels that had drug bound to them will not recover from inactivation and will not open) before stepping to -10 mV for 50 ms (pulse 2) to mea sure sodium channels that are available to open. The higher inhibition seen at pulse 2 is due to inactivated state -dependent inhibition. Pulse 1 and 2 are used to investigate drug binding to the open state and inactivated state of the Na channels, respectively. Each concentration of compound is applied for 5 minutes. The results obtained for (R)-32 are summerized in Tables S4–S8. […]
(§4) Compound Concentration Measurement % Inhibition
(§5) Data interpretation: Results showing inhibition greater than 50% are considered to represent significant effects of test compound and have been bolded for (R)-32 for better visualization. The studies were carried out in Eurofins Discovery (St. Charles, MO, USA).

[2] = target: T2, Voltage-Gated Sodium channel hNav1.1 (Homo sapiens, UniProt P35498); test: human sodium ion channel cell based automated patch clamp assay, hNav1.1
T2 construct: Eurofins Discovery (St. Charles, MO, USA)
Description: as §1, §2
Human sodium ion channels cell based automated patch clamp assays: sodium channels exist in, a) a resting or closed state at -120 mV, b) a transient open state that inactivates to c) inactivated state at -10 mV. Sodium current inhibition within 1-2 ms of channel opening at 0 mV is open channel inhibition (pulse 1). In order to completely inactivate the sodium channels and facilitate inactivated state-dependent binding of the drug, the channels were kept at […] ( -10 mV) longer (pulsed for 500 ms) and then stepped back to -120 mV for 10 ms to recover from inactivation into resting or closed state (but the channels that had drug bound to them will not recover from inactivation and will not open) before stepping to -10 mV for 50 ms (pulse 2) to mea sure sodium channels that are available to open. The higher inhibition seen at pulse 2 is due to inactivated state -dependent inhibition. Pulse 1 and 2 are used to investigate drug binding to the open state and inactivated state of the Na channels, respectively. Each concentration of compound is applied for 5 minutes. The results obtained for (R)-32 are summerized in Tables S4–S8.
Table S4. Effect of the (R)-32 on subunit Nav1.1.
Voltage-Gated Sodium channel hNav1.1
as §4, §5

TRPA1 (h) = target: T3, TRPA1 (h) (Homo sapiens, UniProt O75762); test: TRPA1 (h) cell based antagonist calcium flux assay; conditions: HEK293, human recombinant HEK-293 cell, read-out: % inhibition of control agonist response
T3 construct: Eurofins
Description: Using previously described testing methodologies, binding/functional tests were conducted on a commercial basis at Eurofins Laboratories (Poitiers, France) and Eurofins Panlabs Discovery Services Taiwan, Ltd. (New Taipei City, Taiwan); see Table S9 for more information.
Table S9. Radioligand binding and functional assays. […]
TRPA1 (h) transient potential ion channel cell based antagonist calcium flux assay […]
Assays were performed commercially in Eurofins Laboratories (Poitiers, France) or Eurofins Panlabs Discovery Services
Taiwan, Ltd. (New Taipei City, Taiwan).

[3] = target: T4, Voltage-Gated Sodium channel hNav1.6 (Homo sapiens, UniProt Q9UQD0); test: human sodium ion channel cell based automated patch clamp assay, hNav1.6
T4 construct: Eurofins Discovery (St. Charles, MO, USA)
Description: as §1, §2, §3, §4, §5

[4] = hNav1.2, Pulse 1 (open state), read-out: % Inhibition Mean
[5] = hNav1.2, Pulse 1 (open state), read-out: % Inhibition n1
[6] = hNav1.2, Pulse 1 (open state), read-out: % Inhibition n2
[7] = hNav1.2, Pulse 2 (inactivated state), read-out: % Inhibition Mean
[8] = hNav1.2, Pulse 2 (inactivated state), read-out: % Inhibition n1
[9] = hNav1.2, Pulse 2 (inactivated state), read-out: % Inhibition n2
[10] = hNav1.1, Pulse 1 (open state), read-out: % Inhibition Mean
[11] = hNav1.1, Pulse 1 (open state), read-out: % Inhibition n1
[12] = hNav1.1, Pulse 1 (open state), read-out: % Inhibition n2
[13] = hNav1.1, Pulse 2 (inactivated state), read-out: % Inhibition Mean
[14] = hNav1.1, Pulse 2 (inactivated state), read-out: % Inhibition n1
[15] = hNav1.1, Pulse 2 (inactivated state), read-out: % Inhibition n2
[16] = hNav1.6, Pulse 1 (open state), read-out: % Inhibition Mean
[17] = hNav1.6, Pulse 1 (open state), read-out: % Inhibition n1
[18] = hNav1.6, Pulse 1 (open state), read-out: % Inhibition n2
[19] = hNav1.6, Pulse 2 (inactivated state), read-out: % Inhibition Mean
[20] = hNav1.6, Pulse 2 (inactivated state), read-out: % Inhibition n1
[21] = hNav1.6, Pulse 2 (inactivated state), read-out: % Inhibition n2

T1 sequence (Q99250 whole entry): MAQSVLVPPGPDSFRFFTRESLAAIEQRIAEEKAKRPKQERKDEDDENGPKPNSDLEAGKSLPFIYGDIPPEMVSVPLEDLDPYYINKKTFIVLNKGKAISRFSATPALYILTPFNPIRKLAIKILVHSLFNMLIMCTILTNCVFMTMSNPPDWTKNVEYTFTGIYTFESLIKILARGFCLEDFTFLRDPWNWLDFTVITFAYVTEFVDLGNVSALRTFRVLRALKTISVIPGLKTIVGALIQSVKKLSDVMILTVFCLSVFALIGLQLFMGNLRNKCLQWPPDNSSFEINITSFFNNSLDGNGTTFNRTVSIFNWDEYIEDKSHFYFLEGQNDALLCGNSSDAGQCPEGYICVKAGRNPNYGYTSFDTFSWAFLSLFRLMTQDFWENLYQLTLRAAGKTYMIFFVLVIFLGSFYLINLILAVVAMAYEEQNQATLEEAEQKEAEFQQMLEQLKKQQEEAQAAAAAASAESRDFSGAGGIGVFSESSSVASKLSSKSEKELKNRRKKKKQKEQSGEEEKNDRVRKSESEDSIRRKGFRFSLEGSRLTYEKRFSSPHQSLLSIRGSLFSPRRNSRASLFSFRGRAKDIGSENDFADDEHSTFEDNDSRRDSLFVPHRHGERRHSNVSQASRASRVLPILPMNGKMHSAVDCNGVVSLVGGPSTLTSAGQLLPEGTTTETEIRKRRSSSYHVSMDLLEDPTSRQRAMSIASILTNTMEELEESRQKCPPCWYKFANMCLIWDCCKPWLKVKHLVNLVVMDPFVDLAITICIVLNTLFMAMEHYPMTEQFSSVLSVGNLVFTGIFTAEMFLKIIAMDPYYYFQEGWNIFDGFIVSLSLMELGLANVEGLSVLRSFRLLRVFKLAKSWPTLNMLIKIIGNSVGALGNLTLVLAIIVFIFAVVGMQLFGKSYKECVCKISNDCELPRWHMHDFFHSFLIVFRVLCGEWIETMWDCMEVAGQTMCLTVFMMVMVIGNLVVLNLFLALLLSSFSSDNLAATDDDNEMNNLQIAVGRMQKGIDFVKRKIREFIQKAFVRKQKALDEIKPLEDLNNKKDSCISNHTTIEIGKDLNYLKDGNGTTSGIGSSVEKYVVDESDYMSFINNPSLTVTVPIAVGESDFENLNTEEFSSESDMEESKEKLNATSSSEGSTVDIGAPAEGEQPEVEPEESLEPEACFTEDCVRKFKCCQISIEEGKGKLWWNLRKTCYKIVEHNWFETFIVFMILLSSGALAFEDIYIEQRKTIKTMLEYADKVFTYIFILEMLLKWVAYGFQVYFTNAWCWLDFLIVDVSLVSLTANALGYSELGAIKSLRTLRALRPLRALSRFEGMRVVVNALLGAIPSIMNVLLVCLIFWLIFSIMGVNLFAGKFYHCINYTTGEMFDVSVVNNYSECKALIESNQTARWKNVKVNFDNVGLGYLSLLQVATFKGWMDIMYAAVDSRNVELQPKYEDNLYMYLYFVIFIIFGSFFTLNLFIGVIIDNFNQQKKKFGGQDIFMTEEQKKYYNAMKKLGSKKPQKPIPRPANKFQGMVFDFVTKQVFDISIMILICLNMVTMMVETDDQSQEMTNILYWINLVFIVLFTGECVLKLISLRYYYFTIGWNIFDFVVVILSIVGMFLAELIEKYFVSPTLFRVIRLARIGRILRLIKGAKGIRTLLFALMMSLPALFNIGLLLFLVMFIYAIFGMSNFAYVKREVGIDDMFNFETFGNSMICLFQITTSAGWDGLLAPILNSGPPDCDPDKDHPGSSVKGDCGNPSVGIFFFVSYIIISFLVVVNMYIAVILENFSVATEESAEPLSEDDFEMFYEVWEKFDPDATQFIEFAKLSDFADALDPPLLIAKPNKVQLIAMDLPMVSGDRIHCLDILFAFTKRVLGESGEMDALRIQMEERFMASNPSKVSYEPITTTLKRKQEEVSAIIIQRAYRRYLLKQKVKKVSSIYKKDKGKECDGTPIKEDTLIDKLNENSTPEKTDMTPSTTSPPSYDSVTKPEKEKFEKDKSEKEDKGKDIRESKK
T4 sequence (Q9UQD0 whole entry): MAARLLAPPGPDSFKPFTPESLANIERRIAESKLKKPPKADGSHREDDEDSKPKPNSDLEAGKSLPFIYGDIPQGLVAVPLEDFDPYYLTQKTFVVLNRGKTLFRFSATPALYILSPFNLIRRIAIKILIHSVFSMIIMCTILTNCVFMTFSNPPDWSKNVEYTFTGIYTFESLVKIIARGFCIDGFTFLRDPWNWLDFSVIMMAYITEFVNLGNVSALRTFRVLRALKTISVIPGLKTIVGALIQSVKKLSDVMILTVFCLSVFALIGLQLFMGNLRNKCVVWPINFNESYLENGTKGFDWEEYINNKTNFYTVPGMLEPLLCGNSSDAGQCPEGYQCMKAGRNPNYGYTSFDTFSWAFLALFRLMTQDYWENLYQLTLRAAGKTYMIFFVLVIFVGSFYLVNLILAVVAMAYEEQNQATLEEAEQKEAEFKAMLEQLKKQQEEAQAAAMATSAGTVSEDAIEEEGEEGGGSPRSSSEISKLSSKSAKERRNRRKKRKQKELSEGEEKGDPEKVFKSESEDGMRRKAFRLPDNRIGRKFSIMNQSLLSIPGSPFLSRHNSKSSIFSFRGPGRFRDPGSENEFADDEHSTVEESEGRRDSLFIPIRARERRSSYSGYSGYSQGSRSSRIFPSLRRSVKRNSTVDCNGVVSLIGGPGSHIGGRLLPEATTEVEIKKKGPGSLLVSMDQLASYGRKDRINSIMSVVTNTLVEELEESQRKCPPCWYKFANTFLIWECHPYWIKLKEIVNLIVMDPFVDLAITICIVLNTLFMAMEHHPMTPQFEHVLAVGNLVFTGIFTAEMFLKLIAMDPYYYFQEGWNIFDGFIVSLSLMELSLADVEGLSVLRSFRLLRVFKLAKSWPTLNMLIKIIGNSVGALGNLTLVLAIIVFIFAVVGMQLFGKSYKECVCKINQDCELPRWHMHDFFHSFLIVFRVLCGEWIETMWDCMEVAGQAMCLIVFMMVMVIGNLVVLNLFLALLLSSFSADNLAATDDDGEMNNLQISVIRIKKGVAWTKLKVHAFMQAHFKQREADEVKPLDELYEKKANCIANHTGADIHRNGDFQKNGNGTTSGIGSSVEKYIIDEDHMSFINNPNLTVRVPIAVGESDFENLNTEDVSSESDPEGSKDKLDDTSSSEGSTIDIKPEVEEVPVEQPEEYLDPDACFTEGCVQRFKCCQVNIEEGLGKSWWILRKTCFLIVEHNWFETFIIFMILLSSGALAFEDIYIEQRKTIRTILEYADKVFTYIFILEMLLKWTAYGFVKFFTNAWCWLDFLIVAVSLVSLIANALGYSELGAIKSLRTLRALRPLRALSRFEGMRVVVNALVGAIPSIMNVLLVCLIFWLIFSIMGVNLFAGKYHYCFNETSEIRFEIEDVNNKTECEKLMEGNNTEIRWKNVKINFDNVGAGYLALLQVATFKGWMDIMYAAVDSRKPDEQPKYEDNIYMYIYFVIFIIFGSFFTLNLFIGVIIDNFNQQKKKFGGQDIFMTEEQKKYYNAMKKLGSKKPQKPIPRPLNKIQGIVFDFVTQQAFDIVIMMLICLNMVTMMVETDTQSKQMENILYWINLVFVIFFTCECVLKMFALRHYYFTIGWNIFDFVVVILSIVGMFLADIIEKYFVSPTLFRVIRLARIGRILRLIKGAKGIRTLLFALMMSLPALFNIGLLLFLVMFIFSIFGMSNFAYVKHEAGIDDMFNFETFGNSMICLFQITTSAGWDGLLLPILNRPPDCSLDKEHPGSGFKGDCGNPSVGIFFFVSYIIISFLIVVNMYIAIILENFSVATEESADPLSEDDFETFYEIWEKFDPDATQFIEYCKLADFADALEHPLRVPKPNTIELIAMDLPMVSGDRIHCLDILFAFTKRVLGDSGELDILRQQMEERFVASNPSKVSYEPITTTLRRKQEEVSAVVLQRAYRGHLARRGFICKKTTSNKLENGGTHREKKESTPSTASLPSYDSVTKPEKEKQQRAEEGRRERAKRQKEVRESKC
T3 sequence (O75762 whole entry): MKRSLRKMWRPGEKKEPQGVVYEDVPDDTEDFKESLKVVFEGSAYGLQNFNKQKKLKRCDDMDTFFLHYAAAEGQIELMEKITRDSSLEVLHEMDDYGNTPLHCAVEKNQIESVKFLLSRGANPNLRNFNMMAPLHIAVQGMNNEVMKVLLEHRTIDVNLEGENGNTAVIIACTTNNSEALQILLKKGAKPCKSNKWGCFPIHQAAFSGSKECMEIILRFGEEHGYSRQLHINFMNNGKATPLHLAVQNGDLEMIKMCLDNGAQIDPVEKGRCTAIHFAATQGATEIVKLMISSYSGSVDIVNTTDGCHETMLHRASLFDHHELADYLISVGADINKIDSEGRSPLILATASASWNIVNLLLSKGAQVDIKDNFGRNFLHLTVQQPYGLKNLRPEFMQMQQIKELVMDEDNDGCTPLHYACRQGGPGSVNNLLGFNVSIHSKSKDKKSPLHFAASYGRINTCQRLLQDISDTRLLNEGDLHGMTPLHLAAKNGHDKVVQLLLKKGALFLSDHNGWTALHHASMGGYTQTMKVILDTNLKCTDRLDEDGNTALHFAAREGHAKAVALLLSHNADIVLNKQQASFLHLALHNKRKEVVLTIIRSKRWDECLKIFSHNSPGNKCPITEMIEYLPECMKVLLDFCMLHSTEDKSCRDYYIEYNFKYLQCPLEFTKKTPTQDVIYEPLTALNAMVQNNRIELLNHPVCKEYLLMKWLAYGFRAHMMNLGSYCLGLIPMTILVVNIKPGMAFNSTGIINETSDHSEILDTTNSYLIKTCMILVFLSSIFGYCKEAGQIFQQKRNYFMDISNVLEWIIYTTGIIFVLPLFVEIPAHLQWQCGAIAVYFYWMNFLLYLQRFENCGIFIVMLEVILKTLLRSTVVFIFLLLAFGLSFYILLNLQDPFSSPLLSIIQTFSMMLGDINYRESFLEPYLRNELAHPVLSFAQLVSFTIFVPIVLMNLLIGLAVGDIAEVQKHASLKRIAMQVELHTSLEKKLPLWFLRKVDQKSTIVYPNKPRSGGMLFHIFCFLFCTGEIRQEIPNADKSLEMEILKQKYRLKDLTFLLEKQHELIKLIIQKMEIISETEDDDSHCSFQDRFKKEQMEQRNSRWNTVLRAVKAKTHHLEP

Work on CC(=O)N[C@@H](C(=O)N1CCN(c2cccc(OC(F)(F)F)c2)CC1)c1ccccc1 [(R)-32, (R)-N-(2-Oxo-1-phenyl-2-(4-(3-(trifluoromethoxy)phenyl)piperazin-1-yl)ethyl)acetamide] yielded an inhibition at 1 µM [1, 4] of 0.79%, an inhibition at 1 µM [1, 5] of 1.86% and an inhibition at 1 µM [1, 6] of -0.29%. The inhibition at 10 µM [1, 4] was 3.6%, the inhibition at 10 µM [1, 5] was 2.03% and the inhibition at 10 µM [1, 6] was 5.18%. For the same compound, the inhibition at 100 µM [1, 4] was 33.5%, the inhibition at 100 µM [1, 5] was 35.7% and the inhibition at 100 µM [1, 6] was 31.3%. It also gave an inhibition at 1 µM [1, 7] of 1.62%, an inhibition at 1 µM [1, 8] of 1.9% and an inhibition at 1 µM [1, 9] of 1.33%. The inhibition at 10 µM [1, 7] was 41.9%, the inhibition at 10 µM [1, 8] was 45.5% and the inhibition at 10 µM [1, 9] was 38.2%. The inhibition at 100 µM [1, 7] was 100%, the inhibition at 100 µM [1, 8] was 100% and the inhibition at 100 µM [1, 9] was 100%. For the same compound, the inhibition at 1 µM [2, 10] was 1.61%, the inhibition at 1 µM [2, 11] was 2.91% and the inhibition at 1 µM [2, 12] was 0.31%. The inhibition at 10 µM [2, 10] was 1.2%, the inhibition at 10 µM [2, 11] was -0.28% and the inhibition at 10 µM [2, 12] was 2.68%. It also gave an inhibition at 100 µM [2, 10] of 31%, an inhibition at 100 µM [2, 11] of 24% and an inhibition at 100 µM [2, 12] of 38%. It also gave an inhibition at 1 µM [2, 13] of 1.92%, an inhibition at 1 µM [2, 14] of 1.74% and an inhibition at 1 µM [2, 15] of 2.11%. For the same compound, the inhibition at 10 µM [2, 13] was 41.9%, the inhibition at 10 µM [2, 14] was 45.3% and the inhibition at 10 µM [2, 15] was 38.6%. It also gave an inhibition at 100 µM [2, 13] of 97.6%, an inhibition at 100 µM [2, 14] of 97.9% and an inhibition at 100 µM [2, 15] of 97.4%. The inhibition at 10 µM (TRPA1 (h)) was 9.6%, the inhibition at 1 µM [3, 16] was -5.14% and the inhibition at 1 µM [3, 17] was -8.4%. It also gave an inhibition at 1 µM [3, 18] of -1.89%, an inhibition at 10 µM [3, 16] of -10.8% and an inhibition at 10 µM [3, 17] of -14.4%. It also gave an inhibition at 10 µM [3, 18] of -7.25%, an inhibition at 100 µM [3, 16] of -0.11% and an inhibition at 100 µM [3, 17] of -1.89%. The inhibition at 100 µM [3, 18] was 1.68%, the inhibition at 1 µM [3, 19] was -4.59% and the inhibition at 1 µM [3, 20] was -10.1%. It also gave an inhibition at 1 µM [3, 21] of 0.93%, an inhibition at 10 µM [3, 19] of 39.9% and an inhibition at 10 µM [3, 20] of 53%. For the same compound, the inhibition at 10 µM [3, 21] was 26.9%, the inhibition at 100 µM [3, 19] was 108% and the inhibition at 100 µM [3, 20] was 121%. For the same compound, the inhibition at 100 µM [3, 21] was 95.2%.
